Test results taken from patent US9695103B2 (priority 2014, dated 2017).
“And” between values parts separate entries of the source, which are not always exact repeats. Identical values can stand only once.

Experiments:
daphnias = assay: Biocidal activity against crustaceans (daphnias), FR. 1.39.2007,03223 procedure; details: test time 96 h; for Number of survived daphnias (the average over parallel set of samples), Test sample: control sample 10
fungal spores = assay: Fungicidal activity according to GOST 30028.4-2006, resistance of treated materials to fungal spores; format: cell-based; details: additive content 5 % wt.
E. coli No. 906 = assay: Bactericidal activity: exposure of bacterial culture in salt solution, neutralization, inoculation on solid nutrient medium; format: cell-based; set-up: key: NG - no growth; CG - confluent growth
S. aureus No. 1257 = assay: as above; format: cell-based; set-up: key: NG - no growth; CG - confluent growth
[1] = tested on: clinical strain P. aeruginosa; assay: as above; format: cell-based; set-up: key: NG - no growth; CG - confluent growth
[2] = tested on: E. coli No. 906, S. aureus No. 1257, clinical strain P. aeruginosa; assay: Bactericidal activity, summary statement over investigated strains; format: cell-based; details: concentration of 2.0%, time of exposure from 30 min
[3] = 0.00001 % wt. in aqueous medium
[4] = Paper impregnated with latex SKS 65 GP

For `C=CC(=O)[O-].O=C([O-])c1ccccc1.[Cu+2]` [Copper acrylate-benzoate, reference compound], the “Daphnia death rate in test sample, % of control sample” value (shortened to “Daphnia death rate in test sample, %”) (daphnias; [3]) was 0 % of control sample, the “Number of survived daphnias (the average over parallel set of samples), Test sample” value (daphnias; [3]) was 10 and the “Daphnia death rate in test sample, %” value (daphnias; 0.0001 % wt. in aqueous medium) was 0 % of control sample. For the same compound, the “Number of survived daphnias (the average over parallel set of samples), Test sample” value (daphnias; 0.0001 % wt. in aqueous medium) was 10, the “Daphnia death rate in test sample, %” value (daphnias; 0.001 % wt. in aqueous medium) was 0 % of control sample and the “Number of survived daphnias (the average over parallel set of samples), Test sample” value (daphnias; 0.001 % wt. in aqueous medium) was 10. For the same compound, the “Daphnia death rate in test sample, %” value (daphnias; 0.01 % wt. in aqueous medium) was 0 % of control sample, the “Number of survived daphnias (the average over parallel set of samples), Test sample” value (daphnias; 0.01 % wt. in aqueous medium) was 10 and the “Daphnia death rate in test sample, %” value (daphnias; 0.1 % wt. in aqueous medium) was 10 % of control sample. For the same compound, the “Number of survived daphnias (the average over parallel set of samples), Test sample” value (daphnias; 0.1 % wt. in aqueous medium) was 9, the “Daphnia death rate in test sample, %” value (daphnias; 1 % wt. in aqueous medium) was 20 % of control sample and the “Number of survived daphnias (the average over parallel set of samples), Test sample” value (daphnias; 1 % wt. in aqueous medium) was 8.

Work on `C=CC(=O)[O][Zn][O]C(=O)C(O)(CC(=O)O)CC(=O)O` [Zinc acrylate-citrate] yielded a Tolerance time (fungal spores; Polyvinyl chloride emulsion) of 17 days.

With copper methacrylate-glycolate the “Bactericidal activity, growth of E. coli 906” value (E. coli No. 906; 1.5 % wt., exposure 30 min) was “CG”, the “Bactericidal activity, growth of E. coli 906” value (E. coli No. 906; 1.5 % wt., exposure 60 min) was >300 CFU and the “Bactericidal activity, growth of E. coli 906” value (E. coli No. 906; 2.0 % wt., exposure 5 min) was “CG”. The “Bactericidal activity, growth of E. coli 906” value (E. coli No. 906; 2.0 % wt., exposure 15 min) was >300 CFU, the “Bactericidal activity, growth of E. coli 906” value (E. coli No. 906; 2.0 % wt., exposure 30 min) was “NG” and the “Bactericidal activity, growth of E. coli 906” value (E. coli No. 906; 2.0 % wt., exposure 60 min) was “NG”. The “Bactericidal activity, growth of E. coli 906” value (E. coli No. 906; 3.0 % wt., exposure 5 min) was “NG”, the “Bactericidal activity, growth of E. coli 906” value (E. coli No. 906; 3.0 % wt., exposure 15 min) was “NG” and the “Bactericidal activity, growth of E. coli 906” value (E. coli No. 906; 3.0 % wt., exposure 30 min) was “NG”. For the same compound, the “Bactericidal activity, growth of S. aureus 1257” value (S. aureus No. 1257; 1.5 % wt., exposure 30 min) was “CG”, the “Bactericidal activity, growth of S. aureus 1257” value (S. aureus No. 1257; 1.5 % wt., exposure 60 min) was >300 CFU and the “Bactericidal activity, growth of S. aureus 1257” value (S. aureus No. 1257; 2.0 % wt., exposure 5 min) was “CG”. For the same compound, the “Bactericidal activity, growth of S. aureus 1257” value (S. aureus No. 1257; 2.0 % wt., exposure 15 min) was >300 CFU, the “Bactericidal activity, growth of S. aureus 1257” value (S. aureus No. 1257; 2.0 % wt., exposure 30 min) was “NG” and the “Bactericidal activity, growth of S. aureus 1257” value (S. aureus No. 1257; 2.0 % wt., exposure 60 min) was “NG”. The “Bactericidal activity, growth of S. aureus 1257” value (S. aureus No. 1257; 3.0 % wt., exposure 5 min) was “NG”, the “Bactericidal activity, growth of S. aureus 1257” value (S. aureus No. 1257; 3.0 % wt., exposure 15 min) was “NG” and the “Bactericidal activity, growth of S. aureus 1257” value (S. aureus No. 1257; 3.0 % wt., exposure 30 min) was “NG”. For the same compound, the “Bactericidal activity, growth of P. aeruginosa” value ([1]; 1.5 % wt., exposure 30 min) was “CG”, the “Bactericidal activity, growth of P. aeruginosa” value ([1]; 1.5 % wt., exposure 60 min) was “CG” and the “Bactericidal activity, growth of P. aeruginosa” value ([1]; 2.0 % wt., exposure 5 min) was “CG”. For the same compound, the “Bactericidal activity, growth of P. aeruginosa” value ([1]; 2.0 % wt., exposure 15 min) was >300 CFU, the “Bactericidal activity, growth of P. aeruginosa” value ([1]; 2.0 % wt., exposure 60 min) was “NG” and the “Bactericidal activity, growth of P. aeruginosa” value ([1]; 3.0 % wt., exposure 5 min) was “NG”. The “Bactericidal activity, growth of P. aeruginosa” value ([1]; 3.0 % wt., exposure 15 min) was “NG”, the “Bactericidal activity, growth of P. aeruginosa” value ([1]; 3.0 % wt., exposure 30 min) was “NG” and the “bactericidal effect against investigated strains” value (from here on “bactericidal effect”) [2] was “stable bactericidal effect”. It also gave a Tolerance time (fungal spores; [4]) of 8 days, a Tolerance time (fungal spores; Paper impregnated with petrolatum base) of 8 days and a Tolerance time (fungal spores; Polyvinyl chloride emulsion) of 10 days. The “Number of survived daphnias (the average over parallel set of samples), Test sample” value (daphnias; [3]) was 1, the “Number of survived daphnias (the average over parallel set of samples), Test sample” value (daphnias; 0.0001 % wt. in aqueous medium) was 0 and the “Number of survived daphnias (the average over parallel set of samples), Test sample” value (daphnias; 0.001 % wt. in aqueous medium) was 0. For the same compound, the “Number of survived daphnias (the average over parallel set of samples), Test sample” value (daphnias; 0.01 % wt. in aqueous medium) was 0, the “Number of survived daphnias (the average over parallel set of samples), Test sample” value (daphnias; 0.1 % wt. in aqueous medium) was 0 and the “Number of survived daphnias (the average over parallel set of samples), Test sample” value (daphnias; 1 % wt. in aqueous medium) was 0.

`C=C(C)C(=O)O.O=C([O-])CC(O)C(=O)[O-].[Zn+2]` (centres unmarked) [Zinc methacrylate-malate] was tested, and the Tolerance time (fungal spores; Polyvinyl chloride emulsion) was 9 days.

With `C=CC(=O)[O][Cu][O]C(=O)C(O)C(O)C(=O)O` (centres unmarked) [Copper acrylate-tartrate] the “Bactericidal activity, growth of E. coli 906” value (E. coli No. 906; 1.5 % wt., exposure 60 min) was “NG”, the “Bactericidal activity, growth of E. coli 906” value (E. coli No. 906; 2.0 % wt., exposure 5 min) was “NG” and the “Bactericidal activity, growth of E. coli 906” value (E. coli No. 906; 2.0 % wt., exposure 15 min) was “NG”. For the same compound, the “Bactericidal activity, growth of E. coli 906” value (E. coli No. 906; 2.0 % wt., exposure 30 min) was “NG”, the “Bactericidal activity, growth of E. coli 906” value (E. coli No. 906; 2.0 % wt., exposure 60 min) was “NG” and the “Bactericidal activity, growth of E. coli 906” value (E. coli No. 906; 3.0 % wt., exposure 5 min) was “NG”. For the same compound, the “Bactericidal activity, growth of E. coli 906” value (E. coli No. 906; 3.0 % wt., exposure 15 min) was “NG”, the “Bactericidal activity, growth of E. coli 906” value (E. coli No. 906; 3.0 % wt., exposure 30 min) was “NG” and the “Bactericidal activity, growth of S. aureus 1257” value (S. aureus No. 1257; 1.5 % wt., exposure 60 min) was “NG”. For the same compound, the “Bactericidal activity, growth of S. aureus 1257” value (S. aureus No. 1257; 2.0 % wt., exposure 5 min) was “NG”, the “Bactericidal activity, growth of S. aureus 1257” value (S. aureus No. 1257; 2.0 % wt., exposure 15 min) was “NG” and the “Bactericidal activity, growth of S. aureus 1257” value (S. aureus No. 1257; 2.0 % wt., exposure 30 min) was “NG”. The “Bactericidal activity, growth of S. aureus 1257” value (S. aureus No. 1257; 2.0 % wt., exposure 60 min) was “NG”, the “Bactericidal activity, growth of S. aureus 1257” value (S. aureus No. 1257; 3.0 % wt., exposure 5 min) was “NG” and the “Bactericidal activity, growth of S. aureus 1257” value (S. aureus No. 1257; 3.0 % wt., exposure 15 min) was “NG”. The “Bactericidal activity, growth of S. aureus 1257” value (S. aureus No. 1257; 3.0 % wt., exposure 30 min) was “NG”, the “Bactericidal activity, growth of P. aeruginosa” value ([1]; 1.5 % wt., exposure 30 min) was “CG” and the “Bactericidal activity, growth of P. aeruginosa” value ([1]; 1.5 % wt., exposure 60 min) was “CG”. For the same compound, the “Bactericidal activity, growth of P. aeruginosa” value ([1]; 2.0 % wt., exposure 5 min) was “CG”, the “Bactericidal activity, growth of P. aeruginosa” value ([1]; 2.0 % wt., exposure 15 min) was >300 CFU and the “Bactericidal activity, growth of P. aeruginosa” value ([1]; 2.0 % wt., exposure 60 min) was “NG”. For the same compound, the “Bactericidal activity, growth of P. aeruginosa” value ([1]; 3.0 % wt., exposure 5 min) was “NG”, the “Bactericidal activity, growth of P. aeruginosa” value ([1]; 3.0 % wt., exposure 15 min) was “NG” and the “Bactericidal activity, growth of P. aeruginosa” value ([1]; 3.0 % wt., exposure 30 min) was “NG”. The “bactericidal effect” value [2] was “stable bactericidal effect”, the Tolerance time (fungal spores; [4]) was 16 days and the Tolerance time (fungal spores; Polyvinyl chloride emulsion) was 17 days.

For `C=CC(=O)[O-].CC(O)C(=O)[O-].[Zn+2]` (centres unmarked) [Zinc acrylate-lactate], the “Daphnia death rate in test sample, %” value (daphnias; 0.0001 % wt. in aqueous medium) was 90 % of control sample, the “Number of survived daphnias (the average over parallel set of samples), Test sample” value (daphnias; 0.0001 % wt. in aqueous medium) was 1 and the “Daphnia death rate in test sample, %” value (daphnias; 0.001 % wt. in aqueous medium) was 100 % of control sample and 70 % of control sample. The “Daphnia death rate in test sample, %” value (daphnias; 0.01 % wt. in aqueous medium) was 100 % of control sample, the “Number of survived daphnias (the average over parallel set of samples), Test sample” value (daphnias; 0.01 % wt. in aqueous medium) was 0 and the “Daphnia death rate in test sample, %” value (daphnias; 0.1 % wt. in aqueous medium) was 100 % of control sample. For the same compound, the “Number of survived daphnias (the average over parallel set of samples), Test sample” value (daphnias; 0.1 % wt. in aqueous medium) was 0, the “Daphnia death rate in test sample, %” value (daphnias; 1 % wt. in aqueous medium) was 100 % of control sample and the “Number of survived daphnias (the average over parallel set of samples), Test sample” value (daphnias; 1 % wt. in aqueous medium) was 0.

With `C=CC(=O)[O][Zn][O]C(=O)CC(=O)O` [Zinc acrylate-malonate] the “Bactericidal activity, growth of E. coli 906” value (E. coli No. 906; 1.5 % wt., exposure 5 min) was >300 CFU, the “Bactericidal activity, growth of E. coli 906” value (E. coli No. 906; 1.5 % wt., exposure 15 min) was 78 CFU and the “Bactericidal activity, growth of E. coli 906” value (E. coli No. 906; 1.5 % wt., exposure 30 min) was 45 CFU and 53 CFU. The “Bactericidal activity, growth of E. coli 906” value (E. coli No. 906; 1.5 % wt., exposure 60 min) was 5 CFU and 4 CFU, the “Bactericidal activity, growth of E. coli 906” value (E. coli No. 906; 2.0 % wt., exposure 5 min) was 1 CFU and the “Bactericidal activity, growth of E. coli 906” value (E. coli No. 906; 2.0 % wt., exposure 15 min) was “NG”. For the same compound, the “Bactericidal activity, growth of E. coli 906” value (E. coli No. 906; 2.0 % wt., exposure 30 min) was “NG”, the “Bactericidal activity, growth of E. coli 906” value (E. coli No. 906; 2.0 % wt., exposure 60 min) was “NG” and the “Bactericidal activity, growth of S. aureus 1257” value (S. aureus No. 1257; 1.5 % wt., exposure 5 min) was >300 CFU. The “Bactericidal activity, growth of S. aureus 1257” value (S. aureus No. 1257; 1.5 % wt., exposure 15 min) was 85 CFU, the “Bactericidal activity, growth of S. aureus 1257” value (S. aureus No. 1257; 1.5 % wt., exposure 30 min) was 35 CFU and 43 CFU and the “Bactericidal activity, growth of S. aureus 1257” value (S. aureus No. 1257; 2.0 % wt., exposure 5 min) was “NG”. The “Bactericidal activity, growth of S. aureus 1257” value (S. aureus No. 1257; 2.0 % wt., exposure 15 min) was “NG”, the “Bactericidal activity, growth of S. aureus 1257” value (S. aureus No. 1257; 2.0 % wt., exposure 30 min) was “NG” and the “Bactericidal activity, growth of S. aureus 1257” value (S. aureus No. 1257; 2.0 % wt., exposure 60 min) was “NG”. For the same compound, the “bactericidal effect” value [2] was “stable bactericidal effect”, the Tolerance time (fungal spores; [4]) was 20 days and the Tolerance time (fungal spores; Polyvinyl chloride emulsion) was 18 days.
